The test system of experiment [1] is SARS-CoV-2. It counts as cell-based. Conditions: Calu3 cells; formulations A-1 to A-6 (1,000 to 0 μg/ml condensation product); Camostat 100 μM or 10 μM as control.
Experiment [2] relates to SARS-CoV-2. It is filed as cell-based. The following applies: precision cut human lung slices; 1, 10 or 100 μg/ml; water control.

Where two headings read alike, the source gives them in different places.

Consider `CN(C)C(=O)COC(=O)Cc1ccc(OC(=O)c2ccc(NC(=N)N)cc2)cc1` [Camostat], for which the viral titer entry is “reduction observed” with SARS-CoV-2 [1] and “reduced the viral titer in a dose-dependent manner” with SARS-CoV-2 [2].

Values taken from US20240390413A1, “POLYMERS OBTAINED BY THE REACTION OF A PHENOLIC COMPOUND AND A CARBONYL COMPOUND AS ANTI-SARS-COV-2 AGENTS” (BASF SE, priority 2021, published 2024).
